Data taken from patent US7112676B2, “Pyrimido compounds having antiproliferative activity” (Hoffmann-La Roche Inc., priority 2002, dated 2006).

Assays:
KDR = target: T1, KDR (Homo sapiens, UniProt P35968); test: KDR kinase HTRF assay; type: biochemical; conditions: 0.3 mM ATP, read-out: IC50 (μM) - Enzyme Inhibition Assays KDR
T1 construct: EEE-tag
Experimental: (§1) To determine inhibition of KDR, FGFR, EGFR, and PDGFR activity, kinase assays were conducted using an HTRF (Homogeneous Time Resolved Fluorescence) assay. This assay is described in A. J. Kolb et. al., Drug Discovery Today, 1998, 3(7), p 333.
Prior to kinase reaction, recombinant EEE-tagged KDR was activated in the presence of activation buffer (50 mM HEPES, pH 7.4, 1 mM DTT, 10% glycerol, 150 mM NaCl, 0.1 mM EDTA, 26 mM MgCl2, and 4 mM ATP). The enzyme was incubated at 4° C. for 1 hour.
(§2) Kinase activity assays were performed in 96-well polypropylene plates (Falcon) with a total volume of 90 μL in each well. Each well contained 1 μM KDR substrate (Biotin-EEEEYFELVAKKKK), 1 nM activated KDR, and a test compound with one of 8 assay concentrations ranging from 100 μM to […] (1:5 serial dilution). The kinase activity assay was done in the presence of 100 mM HEPES, pH 7.4, 1 mM DTT, 0.1 mM Na2VO4, 25 mM MgCl2, 50 mM NaCl (from KDR stock solution), 1% DMSO (from compound), 0.3 mM ATP (at Km concentration) and 0.02% BSA. The reaction was incubated at 37° C. for 30 minutes. To stop the KDR reaction, 72 μL of reaction mixture was transferred into a STOP plate containing 18 μL of revelation buffer (20 mM EDTA, 50 mM HEPES, pH 7.4, 0.02% BSA, 10 nM Eu-labelled anti-pY antibody (final conc. 2 nM), and 100 nM streptavidin (final conc. 20 nM)). After mixing, 35 μL of solution was transferred into duplicate wells of a 384-well black plate (Costar), and read at 615/665 nm on a Wallac Victor 5 reader.
(§3) Compound IC50 values were determined from duplicate sets of data, and calculated by using Excel and fitting data to equation Y=[(a−b)/{1+(X/c)^d]+b, where a and b are enzyme activity in the presence of no test inhibitor compound and an infinite amount of inhibitor test compound, respectively, c is the IC50 and d is the hill constant of the compound response. The IC50 value is the concentration of test compound that reduces by 50% the enzyme activity under the test conditions described.

FGFR = target: T2, FGFR; test: FGFR kinase HTRF assay; type: biochemical; conditions: 10 μM ATP, read-out: IC50 (μM) - Enzyme Inhibition Assays FGFR
T2 construct: fused on or other part: GST tag
Experimental: as §1, §2
FGFR, EGFR, and PDGFR activity assays were carried out as described above for the KDR activity assay with the following differences. GST-tagged FGFR enzyme was activated at room temperature for 1 hour in the following activation buffer: 100 mM HEPES, pH 7.4, 50 mM NaCl, 20 mM MgCl2, and 4 mM ATP. The kinase activity assay was performed with 1 μM substrate (Biotin-EEEEYFELV), 1.5 nM activated FGFR, and test compound in the presence of 100 mM HEPES, 1 mM DTT, 0.4 mM MgCl2, 0.4 mM MnCl2, 50 mM NaCl, 1% DMSO, 10 μM ATP (Km=8.5 μM for FGFR), 0.1 mM Na2VO4, and 0.02% BSA, in a total volume of 90 μL. The rest of the assay was performed in the same manner as KDR assay.
as §3

EGFR = EGFR (Homo sapiens, UniProt P00533); test: EGFR kinase HTRF assay; type: biochemical; conditions: 0.5 μM ATP, read-out: IC50 (μM) - Enzyme Inhibition Assays EGFR
Experimental: as §1, §2
The EGFR kinase activity assay was performed with 1 μM substrate (Biotin-EEEEYFELV), 1.5 nM EGFR, test compounds, 100 mM HEPES, pH 7.4, 1 mM DTT, 5 mM MgCl2, 2 mM MnCl2, 1% DMSO, 0.5 μM ATP (Km for EGFR), 0.1 mM Na2VO4, and 0.02% BSA. The rest of the assay was performed in the same manner as the KDR assay.
as §3

PDGFR = PDGFR kinase HTRF assay; type: biochemical; conditions: 2.3 μM ATP, read-out: IC50 (μM) - Enzyme Inhibition Assays PDGFR
Experimental: as §1, §2
The PDGFR kinase activity assay was performed with 1 μM substrate (Biotin-EEEEYFELV), 1.0 nM PDGFR, test compounds, 100 mM HEPES, pH 7.4, 1 mM DTT, 5 mM MgCl2, 2 mM MnCl2, 1% DMSO, 2.3 μM ATP (Km for PDGFR), 0.1 mM Na2VO4, and 0.02% BSA. The rest of the assay was performed in the same manner as the KDR assay.
as §3

VEGF-stimulated HUVEC = VEGF-stimulated HUVEC proliferation assay (BrdU); type: cell-based; conditions: Homo sapiens, VEGF 20 ng per mL, BrdU labeling, 24 hour exposure, read-out: IC50 (μM) of VEGF and FGF-Stimulated HUVEC Proliferation Assays HUVEC/VEFG
Experimental: (§4) The antiproliferative activity of test compounds of this invention in cell-based assays was evaluated by BrdU assay using the BrdU kit (Roche Biochemicals 1-647-229). Human umbilical vein endothelial cells (HUVEC, Clonetics CC-2519) were cultured in EGM-2 (Clonetics CC-3162) medium and seeded at 10000 cells per well in a volume of 200 μL of EGM-2 (Clonetics CC-3162) media in a 96-well flat bottom plates (Costar 3595) overnight. After 24 hours of growth at 37° C. with 5% CO2, the incubation media was removed slowly by aspiration and the content of each well was washed with 300 μL pre-warmed EBM-2 (Clonetics CC-3156) containing 50 μg per mL of gentamycin and 50 ng per mL of amphotercin-B (Clonetics CC-4083). Subsequently, the remaining media was again aspirated and replaced with 160 μL per well of serum starvation media (EBM-2 supplemented with 1% heat inactivated FBS (Clonetics CC-4102), 50 μg per mL gentamycin and 50 ng per mL of amphotercin-B (Clonetics CC-4083), 10 units per mL of Wyeth-Ayerst heparin (NDC0641-0391-25), and 2 mM L-glutamine (GIBCO 25030-081). After serum starving the cells for 24 hours, 20 μL of test compound at 10× test concentration in serum starvation medium with 2.5% DMSO was added to the appropriate wells. The control wells contained 20 μL of serum starvation medium with 2.5% DMSO. Plates were returned to the incubator for 2 hours. After pre-incubating the cells with the test compounds for 2 hours, 20 μL of growth factors at 10× assay concentration diluted in serum starvation media, FGF at 50 ng per mL, or VEGF (R&D systems 293-VE) at 200 ng per mL were added. The final concentration of FGF in the assay was 5 ng per mL and the final concentration of VEGF in the assays was 20 ng per mL. The growth factor free control wells had 20 μL per well of serum starvation media with the same amount of BSA as the wells with growth factors. The plates were returned to the incubator for an additional 22 hours.
(§5) After 24 hour exposure to the test compounds, the cells were labeled with BrdU (Roche Biochemicals 1-647-229), by adding 20 μL per well of BrdU labeling reagent that has been diluted (1:100) in serum starvation medium. The plates were then returned to the incubator for 4 hours. The labeling medium was removed by draining the medium onto paper towels. The cells were fixed and DNA denatured by adding 200 μL of fixation/denaturation solution to each well and incubating at room temperature for 45 minutes. The fixation/denaturation solution was drained onto paper towels and to each well was added 100 μL of anti-BrdU-POD and the wells were incubated for 2 hours at room temperature. The antibody solution was removed and the wells were each washed 3–4 times with 300 μl PBS. 100 μL of the TMB substrate solution was added to each well and the wells were incubated at room temperature for 5–8 minutes. The reaction was then stopped by adding 100 μL per well of 1 M phosphoric acid. The plates were read at 450 nm with reference wavelength of 650 nm. The percent inhibition for each test compound was calculated by subtracting the absorbency of the blank (no cells) wells from all wells, then subtracting the division of the average absorbency of each test duplicate by the average of the controls from 1. The final product was then multiplied by 100 (% of inhibition=(1−average absorbency of test duplicate/average of control)100). The IC50 value is the concentration of test compound that inhibits by 50% BrdU labeling, and is a measure of inhibition of cell proliferation. The IC50 is determined from the linear regression of a plot of the logarithm of the concentration versus percent inhibition.

FGF-stimulated HUVEC = FGF-stimulated HUVEC proliferation assay (BrdU); type: cell-based; conditions: Homo sapiens, FGF 5 ng per mL, BrdU labeling, 24 hour exposure, read-out: IC50 (μM) of VEGF and FGF-Stimulated HUVEC Proliferation Assays HUVEC/bFGFR
Experimental: as §4, §5

Measured: IC50

Chain of EGFR (P00533 25-1210, species assumed): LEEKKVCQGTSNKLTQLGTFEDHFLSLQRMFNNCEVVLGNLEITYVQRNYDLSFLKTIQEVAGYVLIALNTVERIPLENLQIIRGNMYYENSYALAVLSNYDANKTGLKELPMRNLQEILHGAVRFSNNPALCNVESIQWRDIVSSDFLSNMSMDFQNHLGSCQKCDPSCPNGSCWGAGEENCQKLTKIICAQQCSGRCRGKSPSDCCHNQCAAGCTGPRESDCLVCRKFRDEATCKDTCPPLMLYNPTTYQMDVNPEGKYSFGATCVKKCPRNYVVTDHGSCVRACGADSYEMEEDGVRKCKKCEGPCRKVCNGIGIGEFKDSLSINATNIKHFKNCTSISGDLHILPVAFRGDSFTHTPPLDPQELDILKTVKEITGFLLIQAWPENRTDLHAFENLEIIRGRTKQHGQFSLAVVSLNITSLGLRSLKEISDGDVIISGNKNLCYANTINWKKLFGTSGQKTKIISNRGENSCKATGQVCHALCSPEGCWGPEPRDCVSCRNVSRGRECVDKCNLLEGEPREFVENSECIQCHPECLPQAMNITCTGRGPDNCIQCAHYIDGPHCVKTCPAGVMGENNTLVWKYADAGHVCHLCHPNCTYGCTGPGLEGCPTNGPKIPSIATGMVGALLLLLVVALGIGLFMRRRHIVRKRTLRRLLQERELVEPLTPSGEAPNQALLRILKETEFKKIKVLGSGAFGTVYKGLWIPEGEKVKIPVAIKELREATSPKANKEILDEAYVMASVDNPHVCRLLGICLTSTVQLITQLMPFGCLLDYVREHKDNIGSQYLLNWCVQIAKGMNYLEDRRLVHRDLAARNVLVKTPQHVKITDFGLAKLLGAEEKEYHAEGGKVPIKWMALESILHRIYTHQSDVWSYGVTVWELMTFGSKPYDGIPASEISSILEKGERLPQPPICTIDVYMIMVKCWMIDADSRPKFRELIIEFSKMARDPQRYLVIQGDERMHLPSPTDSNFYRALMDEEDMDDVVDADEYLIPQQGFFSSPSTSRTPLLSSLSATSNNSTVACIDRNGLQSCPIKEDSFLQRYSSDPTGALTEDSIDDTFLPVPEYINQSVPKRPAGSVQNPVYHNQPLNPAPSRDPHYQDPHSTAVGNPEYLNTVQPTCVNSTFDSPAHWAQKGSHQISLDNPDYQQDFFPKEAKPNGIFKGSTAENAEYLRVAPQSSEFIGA
T1 sequence (P35968 20-1356, species assumed): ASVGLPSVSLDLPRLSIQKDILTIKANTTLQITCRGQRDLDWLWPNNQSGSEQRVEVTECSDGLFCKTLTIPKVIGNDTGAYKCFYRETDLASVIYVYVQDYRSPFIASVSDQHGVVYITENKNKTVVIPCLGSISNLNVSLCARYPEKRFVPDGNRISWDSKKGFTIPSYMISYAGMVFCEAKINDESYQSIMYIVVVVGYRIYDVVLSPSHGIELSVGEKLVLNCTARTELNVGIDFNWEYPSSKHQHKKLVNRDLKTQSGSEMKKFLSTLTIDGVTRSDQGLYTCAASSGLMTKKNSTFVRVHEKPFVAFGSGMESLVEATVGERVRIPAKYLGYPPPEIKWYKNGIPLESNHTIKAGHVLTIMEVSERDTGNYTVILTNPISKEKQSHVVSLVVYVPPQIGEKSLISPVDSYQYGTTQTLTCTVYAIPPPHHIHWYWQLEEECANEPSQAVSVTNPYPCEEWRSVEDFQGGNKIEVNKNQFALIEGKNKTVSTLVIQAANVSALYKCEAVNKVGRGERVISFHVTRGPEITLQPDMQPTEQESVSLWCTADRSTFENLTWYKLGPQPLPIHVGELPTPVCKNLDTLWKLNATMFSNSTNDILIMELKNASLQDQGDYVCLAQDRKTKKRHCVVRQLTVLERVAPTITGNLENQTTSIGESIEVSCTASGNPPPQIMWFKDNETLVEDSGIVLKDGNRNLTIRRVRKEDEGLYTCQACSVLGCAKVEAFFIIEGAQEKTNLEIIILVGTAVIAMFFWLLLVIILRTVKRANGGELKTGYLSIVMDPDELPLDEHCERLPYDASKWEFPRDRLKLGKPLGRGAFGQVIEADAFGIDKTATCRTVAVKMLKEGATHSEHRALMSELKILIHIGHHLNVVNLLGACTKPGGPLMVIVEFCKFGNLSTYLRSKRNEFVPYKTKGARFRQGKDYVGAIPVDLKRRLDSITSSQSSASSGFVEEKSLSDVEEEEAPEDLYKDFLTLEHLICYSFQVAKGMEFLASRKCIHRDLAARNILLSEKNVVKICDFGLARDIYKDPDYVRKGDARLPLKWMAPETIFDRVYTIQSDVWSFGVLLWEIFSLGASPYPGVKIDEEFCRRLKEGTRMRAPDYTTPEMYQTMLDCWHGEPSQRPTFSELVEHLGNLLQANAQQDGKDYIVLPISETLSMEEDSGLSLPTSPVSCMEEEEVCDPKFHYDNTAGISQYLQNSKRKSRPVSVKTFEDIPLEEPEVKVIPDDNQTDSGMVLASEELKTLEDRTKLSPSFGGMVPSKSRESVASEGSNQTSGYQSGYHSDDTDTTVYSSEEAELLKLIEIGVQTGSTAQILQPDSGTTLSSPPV

COc1ccc(N2C(=O)N([C@@H](C)c3ccccc3)c3nc(Nc4ccccc4)ncc3C2C)cc1 (stereo partly drawn) [Example 18, 3-(4-Methoxy-phenyl)-4-methyl-7-phenylamino-1-[1-(S)-phenyl-ethyl]-3,4-dihydro-1H-pyrimido[4,5-d]pyrimidin-2-one]
< 10 µM: all assays above
